In PubChem BioAssay (NCI):
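How tested: cells in 96-well plates exposed to compound for 48 hours at five concentrations. GI50: concentration for 50% inhibition of growth. TGI denotes the concentration required for complete inhibition of growth.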

What was measured:
Assay in all cases: growth of human tumour cells (NCI), 48 h
BT-549 breast = tested on: BT-549 breast
OVCAR-3 ovarian = tested on: OVCAR-3 ovarian
HS 578T breast = tested on: HS 578T breast
SK-MEL-2 melanoma = tested on: SK-MEL-2 melanoma
IGROV1 ovarian = tested on: IGROV1 ovarian
OVCAR-5 ovarian = tested on: OVCAR-5 ovarian
SK-OV-3 ovarian = tested on: SK-OV-3 ovarian
LOX IMVI melanoma = tested on: LOX IMVI melanoma
HOP-92 NSCLC = tested on: HOP-92 NSCLC
TK-10 renal = tested on: TK-10 renal
M14 melanoma = tested on: M14 melanoma
A549 NSCLC = tested on: A549 NSCLC
HCT-116 colon = tested on: HCT-116 colon
SNB-19 CNS = tested on: SNB-19 CNS
RPMI-8226 leukemia = tested on: RPMI-8226 leukemia
KM12 colon = tested on: KM12 colon
U251 CNS = tested on: U251 CNS
NCI/ADR-RES ovarian = tested on: NCI/ADR-RES ovarian
SN12C renal = tested on: SN12C renal
CAKI-1 renal = tested on: CAKI-1 renal
CCRF-CEM leukemia = tested on: CCRF-CEM leukemia
HOP-62 NSCLC = tested on: HOP-62 NSCLC
786-0 renal = tested on: 786-0 renal
SF-539 CNS = tested on: SF-539 CNS
NCI-H23 lung = tested on: NCI-H23 lung
SK-MEL-5 melanoma = tested on: SK-MEL-5 melanoma
NCI-H226 lung = tested on: NCI-H226 lung
MDA-MB-231 breast = tested on: MDA-MB-231 breast
HCT-15 colon = tested on: HCT-15 colon
SK-MEL-28 melanoma = tested on: SK-MEL-28 melanoma
OVCAR-8 ovarian = tested on: OVCAR-8 ovarian
PC-3 prostate = tested on: PC-3 prostate
A498 renal = tested on: A498 renal
NCI-H522 lung = tested on: NCI-H522 lung
MOLT-4 leukemia = tested on: MOLT-4 leukemia
UO-31 renal = tested on: UO-31 renal
HL-60(TB) leukemia = tested on: HL-60(TB) leukemia
SNB-75 CNS = tested on: SNB-75 CNS
T-47D breast = tested on: T-47D breast
ACHN renal = tested on: ACHN renal
RXF 393 renal = tested on: RXF 393 renal
MCF7 breast = tested on: MCF7 breast
EKVX NSCLC = tested on: EKVX NSCLC
SF-295 CNS = tested on: SF-295 CNS
K-562 leukemia = tested on: K-562 leukemia
DU-145 prostate = tested on: DU-145 prostate
SF-268 CNS = tested on: SF-268 CNS
COLO 205 colon = tested on: COLO 205 colon
MALME-3M melanoma = tested on: MALME-3M melanoma
SR leukemia = tested on: SR leukemia
HCC-2998 colon = tested on: HCC-2998 colon
OVCAR-4 ovarian = tested on: OVCAR-4 ovarian
NCI-H460 lung = tested on: NCI-H460 lung
SW-620 colon = tested on: SW-620 colon
UACC-62 melanoma = tested on: UACC-62 melanoma
HT29 colon = tested on: HT29 colon

Which results are given for `COc1cc(-c2ccc3c(c2)NC(=O)/C3=C\c2ccc[nH]2)ccc1O`?
GI50 (BT-549 breast): 96.8 nM; TGI (BT-549 breast): > 50 µM; GI50 (OVCAR-3 ovarian): 17.6 nM; TGI (OVCAR-3 ovarian): > 50 µM; GI50 (HS 578T breast): 26 nM; TGI (HS 578T breast): > 50 µM; GI50 (SK-MEL-2 melanoma): 34 nM; TGI (SK-MEL-2 melanoma): > 50 µM; GI50 (IGROV1 ovarian): 69.7 nM; TGI (IGROV1 ovarian): > 50 µM; GI50 (OVCAR-5 ovarian): 799 nM; TGI (OVCAR-5 ovarian): > 50 µM; GI50 (SK-OV-3 ovarian): 34.1 nM; TGI (SK-OV-3 ovarian): > 50 µM; GI50 (LOX IMVI melanoma): 35.3 nM; TGI (LOX IMVI melanoma): > 50 µM; GI50 (HOP-92 NSCLC): > 24.7 µM; TGI (HOP-92 NSCLC): > 50 µM; GI50 (TK-10 renal): 1720 nM; TGI (TK-10 renal): > 50 µM; GI50 (M14 melanoma): 17.6 nM; TGI (M14 melanoma): > 50 µM; GI50 (A549 NSCLC): 37.4 nM; TGI (A549 NSCLC): > 50 µM; GI50 (HCT-116 colon): 22.8 nM; TGI (HCT-116 colon): > 50 µM; GI50 (SNB-19 CNS): 27.7 nM; TGI (SNB-19 CNS): > 50 µM; GI50 (RPMI-8226 leukemia): 22.8 nM; TGI (RPMI-8226 leukemia): > 16.2 µM; GI50 (KM12 colon): 21.4 nM; TGI (KM12 colon): > 50 µM; GI50 (U251 CNS): 22.1 nM; TGI (U251 CNS): > 50 µM; GI50 (NCI/ADR-RES ovarian): 17.7 nM; TGI (NCI/ADR-RES ovarian): > 50 µM; GI50 (SN12C renal): 42.3 nM; TGI (SN12C renal): > 50 µM; GI50 (CAKI-1 renal): 255 nM; TGI (CAKI-1 renal): > 12.9 µM; GI50 (CCRF-CEM leukemia): 17.6 nM; TGI (CCRF-CEM leukemia): > 16.7 µM; GI50 (HOP-62 NSCLC): 56.3 nM; TGI (HOP-62 NSCLC): > 50 µM; GI50 (786-0 renal): 38.5 nM; TGI (786-0 renal): > 21.1 µM; GI50 (SF-539 CNS): 15.6 nM; TGI (SF-539 CNS): 236 nM; GI50 (NCI-H23 lung): 66.2 nM; TGI (NCI-H23 lung): > 50 µM; GI50 (SK-MEL-5 melanoma): 36.8 nM; TGI (SK-MEL-5 melanoma): 1690 nM; GI50 (NCI-H226 lung): 2060 nM; TGI (NCI-H226 lung): > 50 µM; GI50 (MDA-MB-231 breast): 40.9 nM; TGI (MDA-MB-231 breast): > 50 µM; GI50 (HCT-15 colon): 22.8 nM; TGI (HCT-15 colon): > 50 µM; GI50 (SK-MEL-28 melanoma): 2190 nM; TGI (SK-MEL-28 melanoma): > 50 µM; GI50 (OVCAR-8 ovarian): 25.2 nM; TGI (OVCAR-8 ovarian): > 50 µM; GI50 (PC-3 prostate): 22.8 nM; TGI (PC-3 prostate): > 50 µM; GI50 (A498 renal): 2090 nM; TGI (A498 renal): 39.2 µM; GI50 (NCI-H522 lung): 7.47 nM; TGI (NCI-H522 lung): > 50 µM; GI50 (MOLT-4 leukemia): 32 nM; TGI (MOLT-4 leukemia): > 22.1 µM; GI50 (UO-31 renal): 35.4 nM; TGI (UO-31 renal): > 50 µM; GI50 (HL-60(TB) leukemia): 15.5 nM; GI50 (SNB-75 CNS): 20.1 nM; TGI (SNB-75 CNS): > 50 µM; GI50 (T-47D breast): 219 nM; TGI (T-47D breast): > 50 µM; GI50 (ACHN renal): 41.7 nM; TGI (ACHN renal): > 50 µM; GI50 (RXF 393 renal): 23.4 nM; TGI (RXF 393 renal): 1660 nM; GI50 (MCF7 breast): 88.8 nM; TGI (MCF7 breast): > 50 µM; GI50 (EKVX NSCLC): 144 nM; TGI (EKVX NSCLC): > 50 µM; GI50 (SF-295 CNS): 47.9 nM; TGI (SF-295 CNS): > 22.6 µM; GI50 (K-562 leukemia): < 11.8 nM; TGI (K-562 leukemia): > 50 µM; GI50 (DU-145 prostate): 19.3 nM; TGI (DU-145 prostate): > 30.2 µM; GI50 (SF-268 CNS): 377 nM; TGI (SF-268 CNS): > 50 µM; GI50 (COLO 205 colon): 467 nM; TGI (COLO 205 colon): > 50 µM; GI50 (MALME-3M melanoma): 2650 nM; TGI (MALME-3M melanoma): > 50 µM; GI50 (SR leukemia): 14 nM; TGI (SR leukemia): > 30.5 µM; GI50 (HCC-2998 colon): 98.1 nM; TGI (HCC-2998 colon): 1840 nM; GI50 (OVCAR-4 ovarian): 2580 nM; TGI (OVCAR-4 ovarian): > 50 µM; GI50 (NCI-H460 lung): 19.4 nM; TGI (NCI-H460 lung): > 50 µM; GI50 (SW-620 colon): 18.8 nM; TGI (SW-620 colon): > 50 µM; GI50 (UACC-62 melanoma): 100 nM; TGI (UACC-62 melanoma): > 50 µM; GI50 (HT29 colon): 1050 nM; TGI (HT29 colon): > 50 µM
